Details of assay [1]: method as in Hopp, 1993; Barel et al., 2009. The settings on record: human taste dilution studies; ref Hopp, 1993; Barel et al., 2009; cited from earlier work.
Another assay has as its target T1, mouse TRPM8 (Mus musculus, UniProt Q8R4D5).
T1 construct: expressed in transfected cells; host or cells: HEK293T
The assay can be described thus: Whole-cell patch-clamp recordings of wild-type TRPM8 in transfected HEK293T cells. It is filed as cell-based. The settings on record: for EC50: WT TRPM8, whole-cell, ~25°C; for maximum current activated: −80 mV, normalized to 2 mM (−)-menthol. On the procedure:
(§1) Murine TRPM8 was used in this study. […] Point mutations were made by Fast Mutagenesis Kit V2 (SBS Genetech). Primers were used to generate point mutations.
(§2) HEK293T cells were cultured in Dulbecco’s modified eagle medium supplemented (DMEM) with 10% fetal bovine serum and 1% penicillin-streptomycin solution at 37°C with 5% CO2. When cells grow up to 60%–70%, plasmids were transfected with lipofectamine 2000 following the manufacturer’s protocol. Patch-clamp recordings were performed 18–24 h after transfection.
(§3) Patch-clamp recordings were performed using a HEKA EPC10 amplifier driven by PatchMaster software (HEKA). Patch pipettes were prepared from borosilicate glass and fire-polished to a resistance of 4–6MΩ. A solution (pH 7.25) containing 130 mM NaCl, 0.2 mM EDTA, and 3 mM HEPES was used in both bath and pipette for recording. For whole-cell recording, cells were detached by trypsin and plated on the microscope cover glass for 30–60 min before the experiment. Transfected cells could be identified by green fluorescence. Cells were clamped at +80 mV and −80 mV for 350 ms, respectively, during recording, and the average current in the last 40 ms was performed. All recordings were performed at room temperature (∼25°C).
To perfuse (−)-menthol and other isomers during the patch-clamp recording, a rapid solution changer with a gravity-driven perfusion system was used (RSC-200, Bio-Logic). Each solution was delivered through a separate tube, so there was no mixing of solutions. The pipette tip was placed right in front of the perfusion outlet during recording to ensure the solution exchange was complete.
Data from whole-cell recordings were analyzed in Igor Pro (WaveMatrix). EC50 values were derived from fitting a Hill equation to the concentration–response relationship. Changes in EC50 by point mutation may be caused by either perturbation of ligand binding or channel gating or both. To distinguish these possibilities, the dissociation constant (K d) for ligand binding is estimated assuming the following gating scheme: C0↔KdC1↔LO, where L is the equilibrium constant for the final closed-to-open transition.
For TRPM8 activation by other stereoisomers, P o max was measured from the concentration–response curve and L was determined from P o max by L = P o max/(1 − P o max). Both K d and L contribute to the measured apparent affinity by the equation EC50 = K d/(1 + L).
Background: In patch-clamp work, channel activity is measured electrically.

For assay [2], the system named is residue I846 in the S4 of TRPM8. In words: Thermodynamic mutant cycle analysis (TMCA) with patch-clamp recordings, residue I846 (I846V mutant). It is filed as cell-based, mouse. The settings on record: WT vs I846V. On the procedure: as §1, §2
as §3, with “All recordings were performed at room temperature (∼25°C).” left out
(§4) Data from whole-cell recordings were analyzed in Igor Pro (WaveMatrix). […]
The P o of mouse TRPM8 activated by (−)-menthol was measured through single-channel recordings as in our previous study ([Xu et al., 2020]), and P o of TRPM8 mutant channels activated by (−)-menthol was estimated from noise analysis through whole-cell recordings. The mean current amplitude (I), the squared deviations in current amplitude from the mean value (σ ^2), and the single-channel current (i) were measured experimentally from a membrane patch of ion channels. Then, the number of ion channels clamped into that patch (N) is determined as N=I^2/i⋅I−σ^2.
For TRPM8 activation by other stereoisomers, P o max was measured from the concentration–response curve and L was determined from P o max by L = P o max/(1 − P o max). Both K d and L contribute to the measured apparent affinity by the equation EC50 = K d/(1 + L). […]

For the next assay, the target named is T2, TRPM8 R842K mutant (Mus musculus, UniProt Q8R4D5, R842K).
T2 construct: expressed in transfected cells; host or cells: HEK293T
In words: Whole-cell patch-clamp recordings of the R842K mutant channel. It is filed as cell-based. The settings on record: −80 mV. On the procedure:
as §1, §2, §3
To perfuse (−)-menthol and other isomers during the patch-clamp recording, a rapid solution changer with a gravity-driven perfusion system was used (RSC-200, Bio-Logic). […]

The subject of assay [3] is residue D802 in the S3 of TRPM8. The assay can be described thus: Thermodynamic mutant cycle analysis (TMCA) with patch-clamp recordings, residue D802. It is filed as cell-based, mouse. The settings on record: cycle (−)-menthol vs (+)-neomenthol, WT vs D802 mutant. The method, then: as §1, §2
Patch-clamp recordings were performed using a HEKA EPC10 amplifier driven by PatchMaster software (HEKA). […] Transfected cells could be identified by green fluorescence. […]
as §4
The P o of mouse TRPM8 activated by (−)-menthol was measured through single-channel recordings as in our previous study ([Xu et al., 2020]), and P o of TRPM8 mutant channels activated by (−)-menthol was estimated from noise analysis through whole-cell recordings. The mean current amplitude (I), the squared deviations in current amplitude from the mean value (σ ^2), and the single-channel current (i) were measured experimentally from a membrane patch of ion channels. Then, the number of ion channels clamped into that patch (N) is determined as N=I^2/i⋅I−σ^2. […]

The mark [4] stands for this setting: +80 mV, compared to (−)-menthol.

T1 sequence (Q8R4D5 whole entry): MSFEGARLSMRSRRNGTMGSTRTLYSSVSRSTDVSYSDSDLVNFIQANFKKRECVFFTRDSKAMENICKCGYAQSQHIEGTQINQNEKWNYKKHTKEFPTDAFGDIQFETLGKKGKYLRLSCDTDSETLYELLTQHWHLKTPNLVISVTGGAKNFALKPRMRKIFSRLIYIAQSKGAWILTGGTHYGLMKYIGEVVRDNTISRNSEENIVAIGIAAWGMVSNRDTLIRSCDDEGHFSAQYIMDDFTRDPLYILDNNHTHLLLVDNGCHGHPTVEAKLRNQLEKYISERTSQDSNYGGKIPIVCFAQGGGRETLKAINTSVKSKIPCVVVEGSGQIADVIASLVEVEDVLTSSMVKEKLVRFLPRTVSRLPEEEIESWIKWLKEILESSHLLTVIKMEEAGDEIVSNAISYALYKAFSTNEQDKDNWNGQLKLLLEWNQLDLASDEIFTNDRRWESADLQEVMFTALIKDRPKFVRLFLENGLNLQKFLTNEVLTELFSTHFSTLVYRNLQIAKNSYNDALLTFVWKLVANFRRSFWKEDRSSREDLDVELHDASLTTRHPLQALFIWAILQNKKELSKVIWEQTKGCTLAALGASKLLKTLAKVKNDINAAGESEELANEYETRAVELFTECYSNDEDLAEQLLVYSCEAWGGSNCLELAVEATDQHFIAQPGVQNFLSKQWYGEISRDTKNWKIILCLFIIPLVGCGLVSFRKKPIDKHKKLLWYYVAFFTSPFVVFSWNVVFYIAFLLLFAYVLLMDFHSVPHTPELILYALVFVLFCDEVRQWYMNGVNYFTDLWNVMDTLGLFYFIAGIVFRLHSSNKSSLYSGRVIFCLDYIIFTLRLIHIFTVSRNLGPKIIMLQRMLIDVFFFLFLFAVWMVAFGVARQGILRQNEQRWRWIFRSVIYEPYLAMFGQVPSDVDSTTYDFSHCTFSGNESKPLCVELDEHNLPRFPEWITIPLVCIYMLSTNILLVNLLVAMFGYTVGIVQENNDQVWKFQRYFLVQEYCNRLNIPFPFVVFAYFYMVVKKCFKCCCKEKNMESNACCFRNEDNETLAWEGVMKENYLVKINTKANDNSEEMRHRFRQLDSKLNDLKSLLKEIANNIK
T2 sequence (Q8R4D5 whole entry R842K): as the sequence (Q8R4D5 whole entry) above, with R842K counted along it

As usually defined, the EC50 is the concentration at which the effect is half-maximal. With `CC(C)[C@@H]1CC[C@@H](C)C[C@H]1O` [(−)-menthol], the cooling thresholds result in assay [1] was “lowest cooling thresholds”. At mouse TRPM8 (+80 mV), this molecule displayed a half-maximal effective concentration (EC50) of 62.6 ± 1.2 µM.
Regarding `CC(C)[C@H]1CC[C@@H](C)C[C@H]1O` [(+)-neoisomenthol], the cooling thresholds entry in assay [1] was “much higher cooling thresholds”. Moreover, the coupling energy in assay [2] (+80 mV, cycle (−)-menthol vs (+)-neoisomenthol) is on record as 3.25 ± 0.11 kT; in assay [2] (−80 mV, cycle (−)-menthol vs (+)-neoisomenthol), 3.10 ± 0.18 kT. The “Kd (binding affinity from gating scheme)” value on mouse TRPM8 (setting [4]) is listed as “slightly decreased affinity”. On mouse TRPM8, the maximum current activated entry is on record as “much reduced”.
Regarding `CC(C)[C@@H]1CC[C@@H](C)C[C@@H]1O` [(+)-neomenthol], the coupling energy result in assay [2] (±80 mV, cycle (−)-menthol vs (+)-neomenthol, threshold 1.5 kT) is recorded as “large coupling energy values”; in assay [3] (+80 mV), 1.81 ± 0.10 kT; in assay [3] (−80 mV), 2.12 ± 0.06 kT. Moreover, the “Kd (binding affinity from gating scheme)” value at mouse TRPM8 (setting [4]) is given as “slightly decreased affinity”. Also, the “L value (gating equilibrium constant)” value on mouse TRPM8 (setting [4]) is “significantly reduced”. In addition, the EC50 at mouse TRPM8 (+80 mV) was 206 ± 11.4 µM. Moreover, the maximum current activated entry on mouse TRPM8 is given as “much reduced”. Moreover, the “activation of the R842K mutant” value at TRPM8 R842K mutant is on record as “cannot activate”.

The record behind these values is paper PMC9253294, “Differential Activation of TRPM8 by the Stereoisomers of Menthol” (Frontiers in Pharmacology, 2022).
